This is an account of results in PMC9927415, “Tyrosine Kinase Inhibitors Display Potent Activity against Cryptosporidium parvum” (Microbiology Spectrum, 2022).

What all share (test): KINOMEscan competitive binding, whole panel
In experiment [1] the target is T1, panel of 203 kinases (Homo sapiens, UniProt Q96L34).
T1 construct: purchased DiscoverX (KINOMEscan)
T1 sequence (Q96L34 1-752): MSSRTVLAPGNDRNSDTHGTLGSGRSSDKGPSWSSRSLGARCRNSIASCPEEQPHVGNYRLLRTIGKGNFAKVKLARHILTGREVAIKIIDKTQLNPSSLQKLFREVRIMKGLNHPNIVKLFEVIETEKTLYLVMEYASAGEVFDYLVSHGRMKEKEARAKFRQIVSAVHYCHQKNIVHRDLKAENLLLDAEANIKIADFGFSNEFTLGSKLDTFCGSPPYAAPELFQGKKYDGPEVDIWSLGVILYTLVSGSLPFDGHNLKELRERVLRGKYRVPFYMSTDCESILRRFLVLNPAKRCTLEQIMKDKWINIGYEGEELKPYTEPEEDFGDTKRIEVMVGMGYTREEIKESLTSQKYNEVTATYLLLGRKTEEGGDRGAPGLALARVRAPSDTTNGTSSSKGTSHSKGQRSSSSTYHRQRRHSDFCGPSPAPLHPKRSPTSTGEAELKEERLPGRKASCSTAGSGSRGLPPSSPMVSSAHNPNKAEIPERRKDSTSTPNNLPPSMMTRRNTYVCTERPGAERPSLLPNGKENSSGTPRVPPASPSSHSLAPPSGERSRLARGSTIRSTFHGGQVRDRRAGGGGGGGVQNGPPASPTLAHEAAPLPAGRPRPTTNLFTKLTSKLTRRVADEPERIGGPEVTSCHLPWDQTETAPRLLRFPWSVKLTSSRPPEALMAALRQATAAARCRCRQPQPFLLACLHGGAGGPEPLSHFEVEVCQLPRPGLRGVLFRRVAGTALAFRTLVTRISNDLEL
Conditions: 10 µM, n=1; kinase MARK4; read-out: Percent inhibition MARK4. The method in brief: (§1)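 This competitive binding format measures displacement of T7 phage-tagged kinases from an immobilized ATP-site ligand by the test compound; values are percentage inhibition.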

Experiment [2] concerns the target T2, panel of 203 kinases (Homo sapiens, UniProt P35916).
T2 construct: purchased DiscoverX (KINOMEscan)
Conditions: 10 µM, n=1; kinase FLT4; read-out: Percent inhibition FLT4. The method in brief:
as §1

In experiment [3] the target is T3, panel of 203 kinases (Homo sapiens, UniProt P27037).
T3 construct: purchased DiscoverX (KINOMEscan)
Conditions: 10 µM, n=1; kinase ACVR2A; read-out: Percent inhibition ACVR2A. The method in brief: as §1

Experiment [4] deals with T4, panel of 203 kinases (Homo sapiens, UniProt P14616).
T4 construct: purchased DiscoverX (KINOMEscan)
Conditions: 10 µM, n=1; kinase INSRR; read-out: Percent inhibition INSRR. A digest of the protocol: as §1

The target in experiment [5] is T5, panel of 203 kinases (Homo sapiens, UniProt Q7KZI7).
T5 construct: purchased DiscoverX (KINOMEscan)
Conditions: 10 µM, n=1; kinase MARK2; read-out: Percent inhibition MARK2. The method in brief: as §1

Experiment [6] has as its target T6, panel of 203 kinases (Homo sapiens, UniProt O14976).
T6 construct: purchased DiscoverX (KINOMEscan)
T6 sequence (O14976 1-1311): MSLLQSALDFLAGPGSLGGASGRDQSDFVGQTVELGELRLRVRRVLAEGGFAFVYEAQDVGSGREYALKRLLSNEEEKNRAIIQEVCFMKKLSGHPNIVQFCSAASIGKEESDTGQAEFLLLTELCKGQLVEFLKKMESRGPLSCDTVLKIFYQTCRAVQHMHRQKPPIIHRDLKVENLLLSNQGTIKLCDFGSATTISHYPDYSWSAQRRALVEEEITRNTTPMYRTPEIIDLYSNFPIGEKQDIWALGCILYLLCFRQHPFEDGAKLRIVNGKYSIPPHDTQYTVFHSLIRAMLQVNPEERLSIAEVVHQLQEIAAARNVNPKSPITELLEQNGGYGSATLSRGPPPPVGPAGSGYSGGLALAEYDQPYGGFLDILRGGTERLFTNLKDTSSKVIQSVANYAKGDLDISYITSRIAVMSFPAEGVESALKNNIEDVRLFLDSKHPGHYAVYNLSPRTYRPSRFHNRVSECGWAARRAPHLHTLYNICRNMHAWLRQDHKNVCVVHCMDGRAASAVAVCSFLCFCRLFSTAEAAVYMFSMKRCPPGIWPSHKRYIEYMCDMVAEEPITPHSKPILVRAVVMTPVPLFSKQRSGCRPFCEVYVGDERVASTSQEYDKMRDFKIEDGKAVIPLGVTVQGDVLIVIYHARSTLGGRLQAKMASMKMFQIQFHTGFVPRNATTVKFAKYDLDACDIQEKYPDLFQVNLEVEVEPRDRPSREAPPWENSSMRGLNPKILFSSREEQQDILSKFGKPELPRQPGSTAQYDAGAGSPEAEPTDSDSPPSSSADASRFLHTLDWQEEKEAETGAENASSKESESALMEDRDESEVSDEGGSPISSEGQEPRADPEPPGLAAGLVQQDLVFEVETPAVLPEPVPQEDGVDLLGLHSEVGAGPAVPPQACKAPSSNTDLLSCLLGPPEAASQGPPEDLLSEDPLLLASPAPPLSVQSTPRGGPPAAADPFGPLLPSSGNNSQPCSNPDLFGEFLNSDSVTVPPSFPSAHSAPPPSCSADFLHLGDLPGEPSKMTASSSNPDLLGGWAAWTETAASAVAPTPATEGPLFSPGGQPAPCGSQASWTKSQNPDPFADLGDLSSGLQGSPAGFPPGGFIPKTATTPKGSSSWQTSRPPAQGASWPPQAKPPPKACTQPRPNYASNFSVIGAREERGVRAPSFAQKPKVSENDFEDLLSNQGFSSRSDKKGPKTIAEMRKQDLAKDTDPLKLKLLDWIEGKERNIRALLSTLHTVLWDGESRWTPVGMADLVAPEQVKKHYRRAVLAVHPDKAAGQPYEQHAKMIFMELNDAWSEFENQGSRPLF
The note with it: 10 µM, n=1; kinase GAK; read-out: Percent inhibition GAK. The method in brief: as §1

Experiment [7] has as its target T7, panel of 203 kinases (Homo sapiens, UniProt Q9Y2H1).
T7 construct: purchased DiscoverX (KINOMEscan)
The note with it: 10 µM, n=1; kinase NDR2; read-out: Percent inhibition NDR2. A digest of the protocol: as §1

Experiment [8] concerns the target T8, panel of 203 kinases (Homo sapiens, UniProt Q06187).
T8 construct: purchased DiscoverX (KINOMEscan)
Conditions: 10 µM, n=1; kinase BTK; read-out: Percent inhibition BTK. The method in brief:
as §1

T5 sequence (Q7KZI7 whole entry): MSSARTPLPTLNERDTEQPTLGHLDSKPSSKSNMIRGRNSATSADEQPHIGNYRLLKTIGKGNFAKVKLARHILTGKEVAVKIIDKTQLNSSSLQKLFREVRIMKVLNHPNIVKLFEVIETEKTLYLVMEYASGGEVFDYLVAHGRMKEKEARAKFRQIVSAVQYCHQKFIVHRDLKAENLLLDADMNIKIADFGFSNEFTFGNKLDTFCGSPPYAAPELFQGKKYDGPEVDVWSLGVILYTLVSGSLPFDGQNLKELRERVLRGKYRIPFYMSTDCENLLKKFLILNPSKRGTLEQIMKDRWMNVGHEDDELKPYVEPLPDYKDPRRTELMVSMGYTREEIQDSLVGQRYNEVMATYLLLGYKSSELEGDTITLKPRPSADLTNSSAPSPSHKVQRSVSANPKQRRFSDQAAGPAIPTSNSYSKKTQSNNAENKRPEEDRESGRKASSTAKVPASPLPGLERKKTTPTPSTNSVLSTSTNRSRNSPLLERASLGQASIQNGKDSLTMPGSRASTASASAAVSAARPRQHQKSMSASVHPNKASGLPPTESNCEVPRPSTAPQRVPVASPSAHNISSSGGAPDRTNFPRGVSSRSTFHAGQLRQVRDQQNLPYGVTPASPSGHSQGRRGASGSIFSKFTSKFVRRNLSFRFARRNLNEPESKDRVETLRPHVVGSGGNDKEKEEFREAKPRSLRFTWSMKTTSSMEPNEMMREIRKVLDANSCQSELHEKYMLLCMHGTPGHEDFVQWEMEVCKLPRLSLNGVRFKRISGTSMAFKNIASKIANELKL
T4 sequence (P14616 27-1297): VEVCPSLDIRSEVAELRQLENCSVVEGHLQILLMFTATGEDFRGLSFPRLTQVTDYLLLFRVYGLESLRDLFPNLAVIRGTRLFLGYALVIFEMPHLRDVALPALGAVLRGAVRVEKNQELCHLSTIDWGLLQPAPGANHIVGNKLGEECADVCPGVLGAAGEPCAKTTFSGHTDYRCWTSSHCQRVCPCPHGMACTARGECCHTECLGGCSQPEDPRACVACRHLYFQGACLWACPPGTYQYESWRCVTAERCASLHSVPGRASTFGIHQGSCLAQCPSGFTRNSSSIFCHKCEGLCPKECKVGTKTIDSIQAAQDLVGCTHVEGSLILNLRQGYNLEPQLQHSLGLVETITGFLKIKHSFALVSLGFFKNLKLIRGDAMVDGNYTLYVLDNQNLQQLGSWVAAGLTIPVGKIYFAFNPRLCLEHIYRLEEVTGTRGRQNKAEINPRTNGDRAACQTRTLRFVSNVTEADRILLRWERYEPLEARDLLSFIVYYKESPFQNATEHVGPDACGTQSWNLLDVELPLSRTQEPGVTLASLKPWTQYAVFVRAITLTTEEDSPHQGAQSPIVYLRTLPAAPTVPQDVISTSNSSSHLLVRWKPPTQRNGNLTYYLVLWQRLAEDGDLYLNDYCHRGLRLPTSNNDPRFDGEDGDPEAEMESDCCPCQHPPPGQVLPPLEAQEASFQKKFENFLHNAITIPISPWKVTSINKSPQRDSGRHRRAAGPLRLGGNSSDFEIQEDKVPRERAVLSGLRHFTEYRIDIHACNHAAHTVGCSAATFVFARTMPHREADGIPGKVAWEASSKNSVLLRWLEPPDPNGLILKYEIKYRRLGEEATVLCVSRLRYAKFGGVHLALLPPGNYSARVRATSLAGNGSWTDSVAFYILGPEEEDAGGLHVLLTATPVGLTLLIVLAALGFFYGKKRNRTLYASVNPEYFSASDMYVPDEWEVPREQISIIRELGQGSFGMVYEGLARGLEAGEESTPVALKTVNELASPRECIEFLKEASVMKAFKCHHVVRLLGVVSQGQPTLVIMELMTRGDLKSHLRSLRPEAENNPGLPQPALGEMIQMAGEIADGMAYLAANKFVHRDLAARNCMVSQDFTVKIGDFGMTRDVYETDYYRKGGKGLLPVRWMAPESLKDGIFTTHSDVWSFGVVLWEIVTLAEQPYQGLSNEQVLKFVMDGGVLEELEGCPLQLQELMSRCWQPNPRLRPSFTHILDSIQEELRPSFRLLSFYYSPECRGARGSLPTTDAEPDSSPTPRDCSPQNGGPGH
T8 sequence (Q06187 whole entry): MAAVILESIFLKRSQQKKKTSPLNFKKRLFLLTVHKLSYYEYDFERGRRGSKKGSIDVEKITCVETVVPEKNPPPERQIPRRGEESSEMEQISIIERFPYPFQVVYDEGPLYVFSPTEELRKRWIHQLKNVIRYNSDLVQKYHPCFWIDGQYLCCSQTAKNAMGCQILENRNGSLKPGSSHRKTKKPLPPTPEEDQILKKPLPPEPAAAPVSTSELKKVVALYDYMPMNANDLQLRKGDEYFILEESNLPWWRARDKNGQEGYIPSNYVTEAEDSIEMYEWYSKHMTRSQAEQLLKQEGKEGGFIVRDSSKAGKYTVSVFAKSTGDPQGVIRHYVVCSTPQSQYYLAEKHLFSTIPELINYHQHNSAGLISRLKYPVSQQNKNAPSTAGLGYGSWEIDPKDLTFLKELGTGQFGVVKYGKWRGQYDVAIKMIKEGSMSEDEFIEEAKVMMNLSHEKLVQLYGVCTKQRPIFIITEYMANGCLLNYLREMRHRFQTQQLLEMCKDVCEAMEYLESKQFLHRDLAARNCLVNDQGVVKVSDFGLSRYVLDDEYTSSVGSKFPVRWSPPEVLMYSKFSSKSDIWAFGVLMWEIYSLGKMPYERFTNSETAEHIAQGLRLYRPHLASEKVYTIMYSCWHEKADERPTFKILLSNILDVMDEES
T2 sequence (P35916 25-1363): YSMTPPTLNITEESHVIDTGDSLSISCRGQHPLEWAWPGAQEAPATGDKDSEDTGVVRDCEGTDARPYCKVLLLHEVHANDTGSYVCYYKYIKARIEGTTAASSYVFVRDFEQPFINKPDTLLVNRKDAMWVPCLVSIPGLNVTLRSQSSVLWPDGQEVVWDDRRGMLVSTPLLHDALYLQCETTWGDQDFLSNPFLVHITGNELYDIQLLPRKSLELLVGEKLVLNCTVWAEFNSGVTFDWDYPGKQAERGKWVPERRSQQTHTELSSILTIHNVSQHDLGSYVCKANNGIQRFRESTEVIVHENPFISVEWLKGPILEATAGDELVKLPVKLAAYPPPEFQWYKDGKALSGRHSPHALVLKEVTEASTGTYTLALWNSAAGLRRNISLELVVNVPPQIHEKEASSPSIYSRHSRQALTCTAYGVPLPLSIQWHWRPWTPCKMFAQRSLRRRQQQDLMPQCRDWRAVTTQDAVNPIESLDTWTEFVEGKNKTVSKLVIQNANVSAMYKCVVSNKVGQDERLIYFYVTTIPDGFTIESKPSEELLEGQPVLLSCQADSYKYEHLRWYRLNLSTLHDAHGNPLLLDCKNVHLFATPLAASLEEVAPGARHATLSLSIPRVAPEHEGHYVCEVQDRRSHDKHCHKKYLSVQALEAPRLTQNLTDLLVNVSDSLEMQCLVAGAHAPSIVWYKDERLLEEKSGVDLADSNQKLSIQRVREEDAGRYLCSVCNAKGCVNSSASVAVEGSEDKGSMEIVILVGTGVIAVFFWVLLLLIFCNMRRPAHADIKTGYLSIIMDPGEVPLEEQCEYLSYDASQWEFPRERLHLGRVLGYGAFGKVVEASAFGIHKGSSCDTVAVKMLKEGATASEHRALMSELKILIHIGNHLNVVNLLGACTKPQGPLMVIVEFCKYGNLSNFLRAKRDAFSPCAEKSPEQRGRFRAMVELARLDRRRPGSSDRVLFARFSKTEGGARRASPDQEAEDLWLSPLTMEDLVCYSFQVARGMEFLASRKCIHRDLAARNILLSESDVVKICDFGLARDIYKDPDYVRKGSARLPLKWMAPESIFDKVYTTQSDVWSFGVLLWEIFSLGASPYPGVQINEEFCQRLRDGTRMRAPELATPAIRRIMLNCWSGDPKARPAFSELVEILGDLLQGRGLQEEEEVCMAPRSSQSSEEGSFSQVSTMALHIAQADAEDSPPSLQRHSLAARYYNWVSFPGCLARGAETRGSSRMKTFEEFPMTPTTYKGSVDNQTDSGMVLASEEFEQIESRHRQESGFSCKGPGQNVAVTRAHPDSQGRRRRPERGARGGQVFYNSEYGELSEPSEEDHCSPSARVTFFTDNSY
T3 sequence (P27037 20-513): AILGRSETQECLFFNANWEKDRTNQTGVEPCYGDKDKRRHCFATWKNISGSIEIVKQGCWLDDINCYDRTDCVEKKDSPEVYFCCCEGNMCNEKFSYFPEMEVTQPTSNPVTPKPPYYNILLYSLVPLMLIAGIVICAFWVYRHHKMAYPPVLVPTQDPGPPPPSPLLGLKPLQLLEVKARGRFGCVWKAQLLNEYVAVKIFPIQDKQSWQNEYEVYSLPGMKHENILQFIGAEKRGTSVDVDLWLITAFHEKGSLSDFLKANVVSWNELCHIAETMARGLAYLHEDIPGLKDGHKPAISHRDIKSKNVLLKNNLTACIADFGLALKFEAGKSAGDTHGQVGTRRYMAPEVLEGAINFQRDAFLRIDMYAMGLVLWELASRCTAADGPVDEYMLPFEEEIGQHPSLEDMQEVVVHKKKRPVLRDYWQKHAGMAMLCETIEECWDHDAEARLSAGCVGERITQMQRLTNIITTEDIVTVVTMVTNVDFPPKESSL
T7 sequence (Q9Y2H1 whole entry): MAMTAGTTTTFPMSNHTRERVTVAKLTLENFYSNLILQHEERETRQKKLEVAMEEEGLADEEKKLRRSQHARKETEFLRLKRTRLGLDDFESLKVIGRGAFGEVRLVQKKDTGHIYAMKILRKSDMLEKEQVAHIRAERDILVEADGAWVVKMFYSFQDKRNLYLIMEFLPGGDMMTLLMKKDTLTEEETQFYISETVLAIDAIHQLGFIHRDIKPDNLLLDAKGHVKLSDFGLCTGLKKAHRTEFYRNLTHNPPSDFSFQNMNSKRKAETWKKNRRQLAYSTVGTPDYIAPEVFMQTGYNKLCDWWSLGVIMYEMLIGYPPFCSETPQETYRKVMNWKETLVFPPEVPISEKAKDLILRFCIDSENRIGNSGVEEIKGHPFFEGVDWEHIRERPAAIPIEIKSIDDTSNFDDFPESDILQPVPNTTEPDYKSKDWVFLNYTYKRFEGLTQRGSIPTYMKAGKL

By inhibition is commonly meant the relative decrease from the control value, in per cent. On to `CN1CCN(c2ccc(Nc3nccc(-c4cnn5ncccc45)n3)cc2C#N)CC1` [Compound 1], for which the inhibition at 10 µM was 0% on panel of 203 kinases [1]; 71.9% at panel of 203 kinases [2]; 0% on panel of 203 kinases [3]; 99.2% on panel of 203 kinases [4]; 92% at panel of 203 kinases [5]; 97.9% at panel of 203 kinases [6]. Further, the inhibition at 10 µM on panel of 203 kinases [7] and at panel of 203 kinases [8] was 0% in each case.

In the case of `COc1ccc(Nc2nccc(-c3cnn4ncccc34)n2)cc1` [Compound 2], the inhibition at 10 µM at panel of 203 kinases [1] came out at 67.8%; at panel of 203 kinases [2], 70.1%; on panel of 203 kinases [3] it was 0%; on panel of 203 kinases [4], 87.2%; at panel of 203 kinases [5], 0%; at panel of 203 kinases [6], 99.9%. For the same compound, the inhibition at 10 µM at panel of 203 kinases [7] was determined as 91.7%; on panel of 203 kinases [8] it was 0%.

`Cc1ccc(O)cc1Nc1ccnc(Nc2cccc(C(N)=O)c2)n1` [Compound 3]: the inhibition at 10 µM at panel of 203 kinases [1] was determined as 0%; at panel of 203 kinases [2] it was 99.2%; on panel of 203 kinases [3], 99.3%; on panel of 203 kinases [4] it was 0%; at panel of 203 kinases [5], 0%; on panel of 203 kinases [6], 99.8%. For the same compound, the inhibition at 10 µM amounted to 0% on panel of 203 kinases [7] and 96% on panel of 203 kinases [8].

`Cc1ccc(O)cc1N(C)c1ccnc(Nc2cccc(S(N)(=O)=O)c2)n1` [Compound 4]: the inhibition at 10 µM at panel of 203 kinases [1] stood at 0%; at panel of 203 kinases [2], 99.7%; at panel of 203 kinases [3], 99.7%; at panel of 203 kinases [4], 0%; at panel of 203 kinases [5], 66%; at panel of 203 kinases [6], 99.6%. Moreover, the results for the inhibition at 10 µM at panel of 203 kinases [7] and at panel of 203 kinases [8] were 69.4% and 95%, respectively.

With `Fc1cccc(COc2ccc(Nc3ncnc4c3CN(CCN3CCOCC3)CC4)cc2Cl)c1` [Compound 6], the inhibition at 10 µM on panel of 203 kinases [1], at panel of 203 kinases [2], on panel of 203 kinases [3], at panel of 203 kinases [4], on panel of 203 kinases [5] and on panel of 203 kinases [6] was 0% throughout. Also, the inhibition at 10 µM at panel of 203 kinases [7] and at panel of 203 kinases [8] was 0% throughout.

Turning to `COc1cc(Nc2nccc(-c3sc(N)nc3-c3cccc(NC(=O)c4c(F)cccc4F)c3)n2)cc(OC)c1OC` [Compound 7], the inhibition at 10 µM at panel of 203 kinases [1] was found to be 0%; on panel of 203 kinases [2], 100%; at panel of 203 kinases [3], 0%; on panel of 203 kinases [4] it was 97.8%; at panel of 203 kinases [5], 73.7%; at panel of 203 kinases [6], 100%. In addition, the inhibition at 10 µM on panel of 203 kinases [7] and on panel of 203 kinases [8] was 100% throughout.

For `C[C@@H](Oc1cc(-c2cnc3ccccn23)sc1C(N)=O)c1ccccc1Cl` [Compound 8], the inhibition at 10 µM turned out to be 0% at panel of 203 kinases [1]; 84% at panel of 203 kinases [2]; 0% at panel of 203 kinases [3]; 0% on panel of 203 kinases [4]; 0% at panel of 203 kinases [5]; 97.2% at panel of 203 kinases [6]. The inhibition at 10 µM on panel of 203 kinases [7] and at panel of 203 kinases [8] was 0% throughout.

Take `c1ccc(COc2cccc(-c3ccnc4[nH]ccc34)c2)cc1` [Compound 9]: the inhibition at 10 µM on panel of 203 kinases [1], at panel of 203 kinases [2], on panel of 203 kinases [3], at panel of 203 kinases [4], at panel of 203 kinases [5] and on panel of 203 kinases [6] was 0% throughout. Also, the inhibition at 10 µM at panel of 203 kinases [7] and at panel of 203 kinases [8] was 0% throughout.

Regarding `Clc1ccc(Nc2ncc(-c3ccccc3)s2)cc1` [Compound 10], the inhibition at 10 µM on panel of 203 kinases [1], on panel of 203 kinases [2], at panel of 203 kinases [3], at panel of 203 kinases [4], on panel of 203 kinases [5] and on panel of 203 kinases [6] was 0% each time. Moreover, the inhibition at 10 µM on panel of 203 kinases [7] and on panel of 203 kinases [8] was 0% in each case.

`Nc1ncc2c(-c3ccncc3)c[nH]c2n1` [Compound 11]: the inhibition at 10 µM at panel of 203 kinases [1] was 93.8%; at panel of 203 kinases [2] it was 0%; at panel of 203 kinases [3], 0%; on panel of 203 kinases [4], 0%; on panel of 203 kinases [5] it was 0%; at panel of 203 kinases [6], 97.2%. For the same compound, the inhibition at 10 µM on panel of 203 kinases [7] and at panel of 203 kinases [8] was 0% in each case.
